Data published in the METLIN SMRT retention time set (Domingo-Almenara et al. 2019).

Experiment: gradient 5% acetonitrile 3 min, to 50% in 2 min, to 85% in 15 min, held 3 min, 100 µL/min
Details: column: Zorbax Extend-C18 2.1 x 50 mm; eluents: water / acetonitrile, 0.1% formic acid
Summary of the method: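 Pure standards were analyzed in mixtures of ~100 molecules using HPLC coupled to a quadrupole time-of-flight mass spectrometer, in both positive and negative ionization mode. Separation used a Zorbax Extend-C18 column (2.1 × 50 mm, 1.8 μm) at 100 μL/min, with water and acetonitrile each containing 0.1% formic acid. Dead and dwell volumes were 40 μL and 900 μL, and data were collected over 3 months. Retention time was read from computationally picked adduct peaks, each inspected manually.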

Structure (SMILES)	RP-LC retention time
COc1cc(N2CCC(N3CCN(C)CC3)CC2)ccc1Nc1ncc(Cl)c(Nc2ccccc2S(=O)(=O)C(C)C)n1	694 s
CCCNC(=O)c1cn(-c2ccc(NC(=O)C3CC3)cn2)cn1	655 s
O=C(CCCS(=O)(=O)c1ccccc1)Nc1nnc(-c2ccsc2)o1	674 s
O=C(Nc1ccc(Br)cc1)C1CC(=O)N(c2n[nH]c3cccc(F)c23)C1 (stereo not given)	782 s
COc1ccc(-c2nnc(-c3ccc(Cl)c(S(=O)(=O)N4CCC(C)CC4)c3)o2)cc1OC	1180 s
CCn1cc(-c2ccc(Cl)cc2)cc1C(=O)NCc1ccncc1	720 s
Cn1ncc2c(N3CCSCC3)nc(C(=O)NCCc3ccccn3)nc21	572 s
O=S1(=O)N=CN(c2ccc3c(c2)CCC3)c2ncccc21	862 s
CCn1cnc(S(=O)(=O)N2CCC(C(=O)Nc3cc(C)cc(C)c3)CC2)c1	797 s
CC(C)(NS(=O)(=O)c1ccc(Oc2ccc(F)cc2)cc1)C(=O)NO	804 s
Cc1cc(NS(=O)(=O)c2cc3n(c2)CCCN(C)C3=O)ccc1F	696 s
Cc1ccccc1Nc1c(-c2ccccc2)nc2ccc(Br)cn12	799 s
Cc1cccc2sc(N(CCCN(C)C)C(=O)c3ccccc3Br)nc12	629 s
CN(C)c1ccc(-c2noc(CCC(=O)N3CCC4(CC3)OCCO4)n2)cc1	789 s
CN1C(=O)c2cccn2CC1CNC(=O)c1cccs1 (stereo not given)	628 s
CCCc1nc(-c2c(C)cc(C)nc2NC(=O)c2ccc(F)c(F)c2)no1	947 s
CC(C)CCNC(=O)C1CCN(c2cncnc2N2CCCCC2)CC1	674 s
Cc1cccc(-c2noc(C3CCCN3S(=O)(=O)c3ccc(C)c(Cl)c3)n2)c1 (stereo not given)	1270 s
O=S(=O)(c1ccc(-c2nnc(C3CCC3)o2)o1)N1CCOCC1	780 s
O=C(CCc1nc(-c2ccc(N3CCCCC3)cc2)no1)NCCC1=CCCCC1	1090 s
CCn1nccc1C(=O)Nc1cc(-c2cc3ccccc3n2CC)[nH]n1	876 s
CCCC(=O)Nc1nc(-c2ccc(Br)s2)cs1	993 s
COc1cccc(NC(=O)N2CCC3(C2)C(=O)N(C)c2ccccc23)c1 (stereo not given)	760 s

Structure (SMILES)	RP-LC retention time
COc1ccc(-c2nnc(COc3ccc(NC(=O)c4cccnc4SC)cc3)o2)cc1	893 s
CCn1c(=O)c(N2CCN(C(=O)NCc3ccco3)CC2)nc2ccccc21	811 s
Cc1nc(C)c(C(=O)Nc2nc(-c3cccc(Cl)c3)c(C)s2)s1	1070 s
Cn1c(=O)n(CC(=O)N2CCOCC2)c(=O)c2cnc(-c3ccc(Cl)cc3)nc21	859 s
O=C(NC1CCN(c2cc(-c3cccs3)[nH]n2)C1)c1ccc(F)c(Cl)c1 (stereo not given)	797 s
COc1ccccc1N1CCN(C(=O)C2CC(=O)N(c3n[nH]c4cccc(F)c34)C2)CC1 (stereo not given)	686 s
CCNC(=O)C1CC(=O)N(c2cccc(C)c2)C1 (stereo not given)	658 s
CCn1c(N)c(C(=O)NC)c(=O)c2ccc(C#C[C@@](C)(O)COC)nc21	698 s
O=C(c1cc(S(=O)(=O)N2CCCC(C(=O)N3CCN(c4ccccc4)CC3)C2)c[nH]1)N1CCCC1 (stereo not given)	804 s
CC(C)C1c2nccn2CCCN1C(=O)CCn1cccn1 (stereo not given)	574 s
Cc1ccc2c(=O)c3c([nH]c2c1C)CCN(CC(=O)Nc1ccccc1F)C3	612 s
Cc1ccc(NS(=O)(=O)c2cn(CC(C)C)c3ncccc23)cc1F	953 s
COc1ccc(NC(=O)c2c(C)oc3nc(C)nc(N4CCOCC4)c23)cc1Cl	788 s
Cc1cc(C)cc(Nc2nc(C)cc(=O)n2CC(=O)Nc2cccc(C#N)c2)c1	811 s
Cc1noc(C)c1C(=O)N(C)C1CCc2nnc(C)n2CC1 (stereo not given)	552 s
COc1ccc(Cc2c(C)nn(-c3nc(C)c(C(=O)N4CCOCC4)s3)c2C)cc1	1020 s
CCC(C)(C)C(=O)N1CCCC(c2nc(CCNC(=O)C3CC3)cs2)C1 (stereo not given)	767 s
O=C(CCc1nc(CSc2nnc(-c3ccccc3)o2)no1)Nc1nccs1	766 s
CCC1CCCCN1CCCNC(=O)C1CCCN(c2ncnc3c2nc2n3CCCCC2)C1 (stereo not given)	604 s
CCNC(=O)CCc1cc2cc(C)ccc2[nH]c1=O	638 s
O=C(CSc1nccnc1Sc1ccccc1)N1CCN(c2ccccn2)CC1	688 s
O=C(CCc1c[nH]c2ccccc12)N1CCN2CCS(=O)(=O)N(C3CC3)C(=O)C2C1 (stereo not given)	766 s
CCCN1CCN(C(=O)CN2C(=O)C(C)(C)c3cc(C)ccc32)CC1	624 s

Structure (SMILES)	RP-LC retention time
CC(C)(C)N(Cc1ccc2c(c1)OCO2)C(=O)/C=C\S(=O)c1ccccc1 (stereo not given)	902 s
Cc1ccc(NC(=O)Cn2cnc(C)c(C)c2=O)c(F)c1	667 s
Cc1ccc(-c2csc(NC(=O)Cc3csc(COc4ccc(Cl)c(C)c4)n3)n2)cc1	1310 s
Cc1cc(N2CCN(S(=O)(=O)c3ccc(Cl)c(Cl)c3)CC2)nc(NC2CCCCC2)n1	922 s
CSc1ccc2c(c1)C(N1CCN(C)CC1)Cc1ccccc1S2 (stereo not given)	869 s
COc1ccccc1NC(=O)Cn1cccc(-c2nc(-c3ccc(Br)cc3)no2)c1=O	1000 s
O=C(Nc1ccc(F)cc1)C1CCCN(S(=O)(=O)c2cc(-c3noc(C4CCC4)n3)cs2)C1 (stereo not given)	1160 s
Cc1ccc(NC(=O)C2CCN(S(=O)(=O)c3cc(C(=O)N4CCC(C)CC4)n(C)c3)CC2)nc1	705 s
COc1ccc2cc(C(=O)Nc3ccccc3)[nH]c2c1	898 s
CCC1CCCCN1Cc1nc(Cn2ccn3nc(-c4ccc(OC)cc4)cc3c2=O)no1 (stereo not given)	679 s
COc1ccc(C)cc1NC(=O)N1CCCC1c1nc(-c2ccccc2OC)no1 (stereo not given)	940 s
O=C(Nc1ccc2c(c1)OCCO2)c1ccc(-n2cc(CNC(=O)C3CC3)cn2)cc1	720 s
O=C(NCCOc1ccccc1)c1cccc(Br)c1	868 s
CCCN(CCC)S(=O)(=O)c1cccc(-c2cn3cc(C)ccc3n2)c1	731 s
O=C(Cc1cccs1)Nc1cc(F)c2nc(N3CCOCC3)ccc2c1	793 s
Cc1ccc(NC(=O)Cn2nc(N3CCCC3)c3ccccc3c2=O)c(F)c1	885 s
Cc1ccccc1CNC(=O)C(=O)NCC(c1ccc2c(c1)OCO2)N1CCOCC1 (stereo not given)	668 s
COCc1ccc(C(=O)Nc2ccnc3ccc(Cl)cc23)o1	616 s
CC(C)(C)NC(=O)N1CCC(CNC(=O)C(=O)Nc2cc(F)ccc2F)CC1	811 s
COc1ccccc1C(=O)Nc1cccn2nc(C(C)C)nc12	1020 s
O=C(Cn1cnc2c(sc3nc(-c4ccccc4)ccc32)c1=O)Nc1ccccc1Cl	1020 s
CCCn1ccc2oc(C)c(C(=O)NCc3c(C)cc(C)cc3C)c2c1=O	1200 s
CCOc1ccccc1-c1noc(Cn2c(=O)n(-c3ccc(OC)cc3)c(=O)c3sccc32)n1	962 s

Structure (SMILES)	RP-LC retention time
O=C(C1CCCN(c2nnc3ccc(Cl)cn23)C1)N1CCN(C2CCCCC2)CC1 (stereo not given)	525 s
COc1ccc(C2(CNS(=O)(=O)c3ccc4c(c3)OCCO4)CCOCC2)cc1	785 s
CCN(CC)c1nc2ccsc2c(=O)n1CCC(=O)NCCc1c[nH]c2ccccc12	822 s
COC(=O)Cn1c(C)cc(=O)n2nc(-c3ccccc3C)nc12	761 s
CC(=O)Nc1ccc(C2(C(=O)NCc3ccc(F)cc3)CCC2)cc1	748 s
O=C(CC1CCN(C(=O)c2ccc3nc(-c4ccccc4)oc3c2)CC1)NCc1ccco1	789 s
CC1CCCN(c2nc(C(=O)NC(C)C)cs2)C1 (stereo not given)	1020 s
O=C(Nc1ccc(-c2nc3ccccc3s2)cc1)c1cc(=O)c2ccccc2o1	1030 s
Cc1ccc(S(=O)(=O)N2CCC(C)CC2)cc1-c1nnc(-c2ccccc2)o1	1180 s
CCn1c(C(=O)NCCCOC(C)C)cc2c(=O)oc3ccccc3c21	916 s
Cc1cccc(-c2noc(C3CCCN3C(=O)CNC(=O)c3cccs3)n2)c1 (stereo not given)	610 s
COc1ccc(-c2cn3c(CC(=O)N(Cc4cccs4)C4CCCCC4)csc3n2)cc1OC	931 s
Cc1cccc(-c2noc(C3CCCN3S(=O)(=O)c3c(C)c(C)cc(C)c3C)n2)c1 (stereo not given)	849 s
CCCn1ccc2sc(C)c(C(=O)NC3CC3)c2c1=O	679 s
O=C(NCc1ccco1)N1CCc2nc(-c3ccc(F)cc3)ncc2C1	813 s
CCN1CCN(C(=O)c2csc(N3CCN(c4ccc(OC)cc4)CC3)n2)CC1	654 s
Cc1cc2n(n1)CCC(=O)N2CCCC(=O)NCCc1cccs1	648 s
CCN1C(=O)COc2ccc(-c3noc(/C=C/c4ccc(C)cc4)n3)cc21	1230 s
COC(=O)C1=C(C)NC2=C(C(=O)c3ccccc32)C1c1cccs1 (stereo not given)	918 s
O=C(Nc1nnc(-c2ccccc2Cl)o1)c1cccc([N+](=O)[O-])c1	767 s
COCCNC(=O)C1CCC(=O)N(c2ccc(OC)cc2)C1c1ccc(F)cc1 (stereo not given)	658 s
